Values quoted from earlier work as cited in article PMC11224556, “Next-generation of BBQ analogues that selectively target breast cancer” (Frontiers in Chemistry, 2024).

What was measured:
Design in all cases: method as in Gilbert et al., 2020
HT29 (colorectal) cells = details: HT29, Colon; MTT, 72 h; ref Gilbert et al., 2020; cited from earlier work
A2780 (ovary) cells = details: MTT, 72 h, ref Gilbert et al., 2020; cited from earlier work
[1] = test system: MCF-7 breast cancer cells; details: MCF-7, Breast (ER); MTT, 72 h; ref Gilbert et al., 2020; cited from earlier work
[2] = test system: SKBR3 breast cancer cells; details: SKBR3, Breast (HER2); MTT, 72 h; ref Gilbert et al., 2020; cited from earlier work
[3] = test system: MDA-MB-468 breast cancer cells; details: MDA-MB-468, Breast (TN); MTT, 72 h; ref Gilbert et al., 2020; cited from earlier work
BT20 breast cancer cells = details: BT20, Breast (TN); MTT, 72 h; ref Gilbert et al., 2020; cited from earlier work
[4] = test system: MDA-MB-231 breast cancer cells; details: MDA-MB-231, Breast (TN); MTT, 72 h; ref Gilbert et al., 2020; cited from earlier work

In the case of Nc1ccccc1N1C(=O)c2cccc3cccc(c23)C1=O [Compound 2, 2-(2-aminophenyl)-1H-benzo[de]isoquinoline-1,3(2H)-dione], the GI50 (HT29 (colorectal) cells) is given as 32 ± 2 µM, the GI50 (A2780 (ovary) cells) is given as 21 ± 4 µM and the GI50 [1] is given as 0.7 ± 0.12 µM. For the same compound, the GI50 [2] was 0.22 ± 0.02 µM, the GI50 [3] was 0.1 ± 0.02 µM and the GI50 (BT20 breast cancer cells) was 14 ± 1.5 µM. For the same compound, the GI50 [4] was 35 ± 3 µM.
